Reference: US9314536B2, “Compounds and methods for the treatment of EGFR positive diseases” (Bio-Thera Solutions, Ltd., Co., priority 2012, dated 2016)

Columns and labels:
tubulin = assay: HTS-Tubulin Polymerization Assay Kit, tubulin polymerization in vitro; type: biochemical; details: 1 μM stock, 10 μL added to 100 μL 4 mg/ml tubulin, 37° C., 405 nm; compared with the PBS buffer
Procedure: The effect of 3AA-MDC, 206-3AA-MDC (206 is an anit-EGFR antibody containing a light chain with sequence shown in Seq ID 1 and a heavy chain with amino acid sequence shown in Seq ID 2, and it was prepared as described in example 7) and the metabolites (Cys-3AA-MDC and Lys-mcc-MDC) of prodrug antibody maytansinoid conjugates on the tubulin polymerization in vitro was assessed by HTS-Tubulin Polymerization Assay Kit (BK004P, Cytoskeleton, Inc., USA). According to the instruction of kit, pre-warm the 96-well plate to 37° C. for 30 min prior to starting the assay. At the same time, the spectrophotometer (SpectraMax, Molecular Devices, USA) was set as follow: wavelength, 405 nm; temperature, 37° C.; Kinetic, 31 cycles of 1 reading per minute. Make cold G-PEM buffer (990 μL General Tubulin Buffer+10 μL GTP Stock) and keep it on ice. Prepare 4 mg/mL tubulin, 1 μM L-3AA-MDC (N2′-deacetyl-N2′-(6-maleimido-1-oxo-hexyl)maytansine), 1 μM 206-3AA-MDC, 1 μM cys-3AA-MDC, 1 μM lys-mcc-MDC, 100 μM Paclitaxel, and 100 μM Nocodazole. Add 10 μL G-PEM, 3AA-MDC, 206-3AA-MDC, cys-3AA-MDC, lys-mcc-MDC, Paclitaxel, Nocodazole into the wells, and then add 100 μL 4 mg/ml tubulin to each well. Immediately place the plate into the spectrophotometer and start recording using the kinetic setup described above. […] Nocodazole, the tubulin polymerization inhibitor, was set as a negative control. […]

[1] = test system: human acute lymphoblastic leukemia line C.E.M.; details: cited from earlier work
[2] = versus methotrexate, daunorubicin, and vincristine; cited from earlier work

COc1cc2cc(c1Cl)N(C)C(=O)C[C@H](OC(=O)[C@H](C)N(C)C(=O)CCCCCN1C(=O)C=CC1=O)[C@]1(C)OC1[C@H](C)[C@@H]1C[C@@](O)(NC(=O)O1)[C@H](OC)/C=C/C=C(\C)C2 (stereo partly shown) [3AA-MDC, N2′-deacetyl-N2′-(6-maleimido-1-oxo-hexyl)-maytansine]
inhibition of tubulin polymerization (tubulin): more significantly inhibited the tubulin polymerization

COc1cc2cc(c1Cl)N(C)C(=O)C[C@H](OC(=O)[C@H](C)N(C)C(=O)CCSC1CC(=O)N(CC3CCC(C(=O)NCCCC[C@H](N)C(=O)O)CC3)C1=O)[C@]1(C)O[C@H]1[C@H](C)[C@@H]1C[C@@](O)(NC(=O)O1)[C@H](OC)/C=C/C=C(\C)C2 (stereo partly shown) [Lys-mcc-MDC]
inhibition of tubulin polymerization (tubulin): more significantly inhibited the tubulin polymerization

COc1cc2cc(c1Cl)N(C)C(=O)C[C@H](OC(=O)[C@H](C)N(C)C(C)=O)[C@]1(C)O[C@H]1[C@H](C)[C@@H]1C[C@@](O)(NC(=O)O1)[C@H](OC)/C=C/C=C(\C)C2 [Maytansine]
inhibitory concentration (as low as) [1]: 10^−7 mg/mL | fold more cytotoxic than conventional chemotherapeutic agents [2]: 100- to 1000 fold
